PubChem BioAssay (NCI)
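These data come from cells grown in 96-well plates and exposed to compound for 48 hours at five concentrations. Here, GI50 denotes the concentration required for 50% inhibition of growth. TGI denotes the concentration required for complete inhibition of growth.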

Experiments:
Experiment in all cases: DTP human tumour cell line panel, 48 h
[1] = tested on: 786-0 renal
[2] = tested on: A498 renal
[3] = tested on: A549 NSCLC
[4] = tested on: ACHN renal
[5] = tested on: BT-549 breast
[6] = tested on: CAKI-1 renal
[7] = tested on: CCRF-CEM leukemia
[8] = tested on: COLO 205 colon
[9] = tested on: DU-145 prostate
[10] = tested on: EKVX NSCLC
[11] = tested on: HCC-2998 colon
[12] = tested on: HCT-116 colon
[13] = tested on: HCT-15 colon
[14] = tested on: HL-60(TB) leukemia
[15] = tested on: HOP-62 NSCLC
[16] = tested on: HOP-92 NSCLC
[17] = tested on: HS 578T breast
[18] = tested on: HT29 colon
[19] = tested on: IGROV1 ovarian
[20] = tested on: K-562 leukemia
[21] = tested on: KM12 colon
[22] = tested on: LOX IMVI melanoma
[23] = tested on: M14 melanoma
[24] = tested on: MALME-3M melanoma
[25] = tested on: MCF7 breast
[26] = tested on: MDA-MB-231 breast
[27] = tested on: MDA-MB-435
[28] = tested on: MOLT-4 leukemia
[29] = tested on: NCI-H226 lung
[30] = tested on: NCI-H460 lung
[31] = tested on: NCI-H522 lung
[32] = tested on: NCI/ADR-RES ovarian
[33] = tested on: OVCAR-3 ovarian
[34] = tested on: OVCAR-4 ovarian
[35] = tested on: OVCAR-5 ovarian
[36] = tested on: OVCAR-8 ovarian
[37] = tested on: PC-3 prostate
[38] = tested on: RPMI-8226 leukemia
[39] = tested on: RXF 393 renal
[40] = tested on: SF-268 CNS
[41] = tested on: SF-295 CNS
[42] = tested on: SF-539 CNS
[43] = tested on: SK-MEL-2 melanoma
[44] = tested on: SK-MEL-28 melanoma
[45] = tested on: SK-MEL-5 melanoma
[46] = tested on: SK-OV-3 ovarian
[47] = tested on: SN12C renal
[48] = tested on: SNB-19 CNS
[49] = tested on: SNB-75 CNS
[50] = tested on: SR leukemia
[51] = tested on: SW-620 colon
[52] = tested on: T-47D breast
[53] = tested on: TK-10 renal
[54] = tested on: U251 CNS
[55] = tested on: UACC-257 melanoma
[56] = tested on: UACC-62 melanoma
[57] = tested on: UO-31 renal

Molecule `CS(=O)(=O)c1nccc(-c2c(-c3ccc(F)c(OCCc4ccc(F)cc4)c3)nc3sccn23)n1` has a GI50 [1] of 14.9 µM, a TGI [1] of 30 µM and a GI50 [2] of 9.97 µM. The TGI [2] was 21.5 µM, the GI50 [3] was 16.1 µM and the TGI [3] was 30.5 µM. For the same molecule, the GI50 [4] was 2740 nM, the TGI [4] was 7.33 µM and the GI50 [5] was 14 µM. It also gave a TGI [5] of 27.6 µM, a GI50 [6] of 13.5 µM and a TGI [6] of 26.4 µM. It also gave a GI50 [7] of 14.2 µM, a TGI [7] of 33.2 µM and a GI50 [8] of 17.1 µM. For the same molecule, the TGI [8] was 32.5 µM, the GI50 [9] was 2070 nM and the TGI [9] was 4.32 µM. The GI50 [10] was 12.7 µM, the TGI [10] was 25.4 µM and the GI50 [11] was 3.48 µM. The TGI [11] was 11.3 µM, the GI50 [12] was 12.9 µM and the TGI [12] was 25.5 µM. For the same molecule, the GI50 [13] was 12.5 µM, the TGI [13] was 27.8 µM and the GI50 [14] was 3.23 µM. The TGI [14] was 9.31 µM, the GI50 [15] was 15.3 µM and the TGI [15] was 31.2 µM. It also gave a GI50 [16] of 4.7 µM, a TGI [16] of 18.8 µM and a GI50 [17] of 12.5 µM. It also gave a TGI [17] of 43.8 µM, a GI50 [18] of 15.2 µM and a TGI [18] of 30.6 µM. For the same molecule, the GI50 [19] was 5.9 µM, the TGI [19] was 24.6 µM and the GI50 [20] was 15 µM. The TGI [20] was 53.8 µM, the GI50 [21] was 13 µM and the TGI [21] was 28.5 µM. It also gave a GI50 [22] of 13 µM, a TGI [22] of 27.6 µM and a GI50 [23] of 16.6 µM. The TGI [23] was 30.9 µM, the GI50 [24] was 17.2 µM and the TGI [24] was 31.7 µM. The GI50 [25] was 1850 nM, the TGI [25] was 4.31 µM and the GI50 [26] was 17 µM. It also gave a TGI [26] of 37.8 µM, a GI50 [27] of 15.9 µM and a TGI [27] of 29.3 µM. The GI50 [28] was 14.3 µM, the TGI [28] was 34.5 µM and the GI50 [29] was 14.5 µM. The TGI [29] was 35 µM, the GI50 [30] was 4.25 µM and the TGI [30] was 16.3 µM. The GI50 [31] was 11.7 µM, the TGI [31] was 28.1 µM and the GI50 [32] was 17.4 µM. The TGI [32] was 39 µM, the GI50 [33] was 7.11 µM and the TGI [33] was 20.8 µM. It also gave a GI50 [34] of 14.9 µM, a TGI [34] of 30.4 µM and a GI50 [35] of 15.5 µM. The TGI [35] was 30.4 µM, the GI50 [36] was 15.5 µM and the TGI [36] was 33.2 µM. The GI50 [37] was 10.9 µM, the TGI [37] was 27.2 µM and the GI50 [38] was 4.34 µM. It also gave a TGI [38] of 28.1 µM, a GI50 [39] of 15 µM and a TGI [39] of 29.2 µM. For the same molecule, the GI50 [40] was 16.4 µM, the TGI [40] was 36.9 µM and the GI50 [41] was 17 µM. It also gave a TGI [41] of 31.6 µM, a GI50 [42] of 15.5 µM and a TGI [42] of 30 µM. For the same molecule, the GI50 [43] was 15.7 µM, the TGI [43] was 30.7 µM and the GI50 [44] was 11.9 µM. It also gave a TGI [44] of 24.5 µM, a GI50 [45] of 16.5 µM and a TGI [45] of 30.8 µM. For the same molecule, the GI50 [46] was 13.5 µM, the TGI [46] was 26.5 µM and the GI50 [47] was 13.8 µM. The TGI [47] was 30.6 µM, the GI50 [48] was 15.2 µM and the TGI [48] was 33.9 µM. It also gave a GI50 [49] of 11.4 µM, a TGI [49] of 23.6 µM and a GI50 [50] of 12.3 µM. It also gave a TGI [50] of 36.9 µM, a GI50 [51] of 15.2 µM and a TGI [51] of 30.6 µM. For the same molecule, the GI50 [52] was 2700 nM, the TGI [52] was 7.57 µM and the GI50 [53] was 15.1 µM. It also gave a TGI [53] of 28.3 µM, a GI50 [54] of 15.9 µM and a TGI [54] of 29.7 µM. The GI50 [55] was 12.3 µM, the TGI [55] was 25.4 µM and the GI50 [56] was 15.4 µM. It also gave a TGI [56] of 35.5 µM, a GI50 [57] of 10.2 µM and a TGI [57] of 21.8 µM.
